Data reported in patent publication US9296741B2, “Bromodomain inhibitors” (priority 2012, dated 2016).
Read-outs that look alike come from different tables or passages of the source.

Experiments:
[1] = target: human BRD4 first bromodomain (BDI_K57-E168) (Homo sapiens (Human), UniProt O60885); experiment: TR-FRET bromodomain binding assay, BRD4 first bromodomain
[2] = target: human BRD4 second bromodomain (BDII_E352-M457) (Homo sapiens (Human), UniProt O60885); experiment: TR-FRET bromodomain binding assay, BRD4 second bromodomain
[3] = Rat liver microsome stability assay; assay type: in vitro ADME; conditions: for half-life at 0.5 μM: rat liver microsomes (male Sprague-Dawley), 0.5 μM test compound, 0.25 mg/mL microsomal protein, pH 7.4, 37° C., read-out: Stability in rat liver microsomes (t1/2 in minutes)
[4] = tested on: breast cancer cell line MX-1; experiment: MX-1 cell line proliferation assay; assay type: cell-based, human; conditions: MX-1 cells, 3-day proliferation, Cell Titer Glo, read-out: Cellular proliferation: EC50
[5] = Mouse liver microsome stability assay; assay type: in vitro ADME; conditions: microsomes, pH 7.4; for half-life at 0.5 μM: male, CD1, mouse
[6] = Human liver microsome stability assay; assay type: in vitro ADME; conditions: human, microsomes, pH 7.4; for half-life at 0.5 μM: both sexes

Structure (SMILES) | Ki [1] [nM] | Ki [2] [nM] | half-life at 0.5 μM [3] [min] | EC50 ([4]; Homo sapiens, MX1, 72 h) [nM] | half-life at 0.5 μM [5] [min] | half-life at 0.5 μM [6] [min] | Stability in rat liver microsomes (t1/2 in minutes) ([3]; rat, microsomes, pH 7.4) [min] | EC50 [4] [nM] | Stability in mouse liver microsomes (t1/2 in minutes) ([5]; mouse) [min] | Stability in human liver microsomes (t1/2 in minutes) [6] [min]
Cn1cc(-c2cc(S(C)(=O)=O)ccc2Oc2cccc(C(F)(F)F)c2)c2cc[nH]c2c1=O [Example 157, 6-methyl-4-{5-(methylsulfonyl)-2-[3-(trifluoromethyl)phenoxy]phenyl}-1,6-dihydro-7H-pyrrolo[2,3-c]pyridin-7-one] | 30.8 | 21.8 | 53 | 150 | 12 | 27 | – | – | – | –
Cn1cc(-c2cc(S(C)(=O)=O)ccc2Oc2ccc(CC(N)=O)cc2)c2cc[nH]c2c1=O [Example 165, 2-{4-[2-(6-methyl-7-oxo-6,7-dihydro-1H-pyrrolo[2,3-c]pyridin-4-yl)-4-(methylsulfonyl)phenoxy]phenyl}acetamide] | 5 | 2.2 | 111 | 104 | 27 | > 120 | – | – | – | –
CCS(=O)(=O)c1ccc(OC2CCN(C)CC2)c(-c2cn(C)c(=O)c3[nH]ccc23)c1 [Example 170, 4-{5-(ethylsulfonyl)-2-[(1-methylpiperidin-4-yl)oxy]phenyl}-6-methyl-1,6-dihydro-7H-pyrrolo[2,3-c]pyridin-7-one] | 22.8 | 94 | 113 | 332 | 27 | > 120 | – | – | – | –
Cc1ccc(Oc2ccc(S(C)(=O)=O)cc2-c2cn(C)c(=O)c3[nH]ccc23)cc1 [Example 177, 6-methyl-4-[2-(4-methylphenoxy)-5-(methylsulfonyl)phenyl]-1,6-dihydro-7H-pyrrolo[2,3-c]pyridin-7-one] | 11.3 | 4.4 | 6 | 53.5 | 18 | 16 | – | – | – | –
COc1ccccc1Oc1ccc(S(C)(=O)=O)cc1-c1cn(C)c(=O)c2[nH]ccc12 [Example 178, 4-[2-(2-methoxyphenoxy)-5-(methylsulfonyl)phenyl]-6-methyl-1,6-dihydro-7H-pyrrolo[2,3-c]pyridin-7-one] | 10.5 | 3.2 | 7 | 36.2 | 10 | 27 | – | – | – | –
Cc1ccc(F)c(Oc2ccc(S(C)(=O)=O)cc2-c2cn(C)c(=O)c3[nH]ccc23)c1 [Example 186, 4-[2-(2-fluoro-5-methylphenoxy)-5-(methylsulfonyl)phenyl]-6-methyl-1,6-dihydro-7H-pyrrolo[2,3-c]pyridin-7-one] | 10.1 | 3.3 | 3 | 48.4 | 8 | 9 | – | – | – | –
Cn1cc(-c2cc(S(C)(=O)=O)ccc2NCC2CCOC2)c2cc[nH]c2c1=O (stereo not drawn) [Example 201, 6-methyl-4-{5-(methylsulfonyl)-2-[(tetrahydrofuran-3-ylmethyl)amino]phenyl}-1,6-dihydro-7H-pyrrolo[2,3-c]pyridin-7-one] | 10.2 | 40.7 | 117 | 135 | > 120 | 56 | – | – | – | –
Cn1cc(-c2cc(S(C)(=O)=O)ccc2OCC2(F)COC2)c2cc[nH]c2c1=O [Example 206, 4-{2-[(3-fluorooxetan-3-yl)methoxy]-5-(methylsulfonyl)phenyl}-6-methyl-1,6-dihydro-7H-pyrrolo[2,3-c]pyridin-7-one] | 11.6 | 22.8 | 118 | 77.7 | 95 | > 120 | – | – | – | –
CNS(=O)(=O)c1cnc(OCC2CC2)c(-c2cn(C)c(=O)c3[nH]ccc23)c1 [Example 208, 6-(cyclopropylmethoxy)-N-methyl-5-(6-methyl-7-oxo-6,7-dihydro-1H-pyrrolo[2,3-c]pyridin-4-yl)pyridine-3-sulfonamide] | 5.6 | 6 | 23 | 23.5 | 37 | 88 | – | – | – | –
Cn1cc(-c2cc(S(N)(=O)=O)cnc2NCC2CC2)c2cc[nH]c2c1=O [Example 209, 6-[(cyclopropylmethyl)amino]-5-(6-methyl-7-oxo-6,7-dihydro-1H-pyrrolo[2,3-c]pyridin-4-yl)pyridine-3-sulfonamide] | 4.6 | 3.6 | 105 | 36.8 | 116 | > 120 | – | – | – | –
CCS(=O)(=O)c1ccc(O[C@H]2CC[C@@](C)(O)CC2)c(-c2cn(C)c(=O)c3[nH]ccc23)c1 [Example 211, 4-{5-(ethylsulfonyl)-2-[(cis-4-hydroxy-4-methylcyclohexyl)oxy]phenyl}-6-methyl-1,6-dihydro-7H-pyrrolo[2,3-c]pyridin-7-one] | 1.4 | 2.1 | – | – | – | – | 48 | 11.9 | 63 | 65
Cn1cc(-c2cc(S(C)(=O)=O)ccc2OC2CCC2)c2cc[nH]c2c1=O [Example 213, 4-[2-(cyclobutyloxy)-5-(methylsulfonyl)phenyl]-6-methyl-1,6-dihydro-7H-pyrrolo[2,3-c]pyridin-7-one] | 3.2 | 4.8 | 38 | 28.7 | 89 | 79 | – | – | – | –
Cn1cc(-c2cc(S(C)(=O)=O)ccc2OCC2CCCC2)c2cc[nH]c2c1=O [Example 214, 4-[2-(cyclopentylmethoxy)-5-(methylsulfonyl)phenyl]-6-methyl-1,6-dihydro-7H-pyrrolo[2,3-c]pyridin-7-one] | 2.4 | 1.7 | 9 | 10.5 | 8 | 27 | – | – | – | –
Cn1cc(-c2cc(S(C)(=O)=O)ccc2OC2CCCCC2)c2cc[nH]c2c1=O [Example 215, 4-[2-(cyclohexyloxy)-5-(methylsulfonyl)phenyl]-6-methyl-1,6-dihydro-7H-pyrrolo[2,3-c]pyridin-7-one] | 0.83 | 0.46 | 6 | 1.9 | 11 | 12 | – | – | – | –
Cn1cc(-c2cc(S(C)(=O)=O)ccc2OCC2CCOC2)c2cc[nH]c2c1=O (stereo not drawn) [Example 217, 6-methyl-4-[5-(methylsulfonyl)-2-(tetrahydrofuran-3-ylmethoxy)phenyl]-1,6-dihydro-7H-pyrrolo[2,3-c]pyridin-7-one] | 3.3 | 8.1 | 101 | 34.2 | 68 | 70 | – | – | – | –
Cn1cc(-c2cc(S(C)(=O)=O)ccc2OC2CCCCCC2)c2cc[nH]c2c1=O [Example 220, 4-[2-(cycloheptyloxy)-5-(methylsulfonyl)phenyl]-6-methyl-1,6-dihydro-7H-pyrrolo[2,3-c]pyridin-7-one] | 2.8 | 1.2 | 5 | 21.3 | 4 | 5 | – | – | – | –
CC(C)COc1ccc(S(C)(=O)=O)cc1-c1cn(C)c(=O)c2[nH]ccc12 [Example 221, 6-methyl-4-[2-(2-methylpropoxy)-5-(methylsulfonyl)phenyl]-1,6-dihydro-7H-pyrrolo[2,3-c]pyridin-7-one] | 6.6 | 5 | 24 | 6.1 | 43 | 63 | – | – | – | –
Cn1cc(-c2cc(S(C)(=O)=O)ccc2OCC2CCCCC2)c2cc[nH]c2c1=O [Example 224, 4-[2-(cyclohexylmethoxy)-5-(methylsulfonyl)phenyl]-6-methyl-1,6-dihydro-7H-pyrrolo[2,3-c]pyridin-7-one] | 6.9 | 7 | 8 | 7.6 | 5 | 6 | – | – | – | –
Cn1cc(-c2cc(S(C)(=O)=O)ccc2OC[C@H]2CCC(=O)N2)c2cc[nH]c2c1=O [Example 226, 6-methyl-4-[5-(methylsulfonyl)-2-{[(2R)-5-oxopyrrolidin-2-yl]methoxy}phenyl]-1,6-dihydro-7H-pyrrolo[2,3-c]pyridin-7-one] | 141 | 438 | > 120 | > 3000 | > 120 | 105 | – | – | – | –
Cn1cc(-c2cc(S(C)(=O)=O)ccc2OCCN2CCOCC2)c2cc[nH]c2c1=O [Example 227, 6-methyl-4-{5-(methylsulfonyl)-2-[2-(morpholin-4-yl)ethoxy]phenyl}-1,6-dihydro-7H-pyrrolo[2,3-c]pyridin-7-one] | 73.9 | 211 | 70 | 658 | > 120 | 50 | – | – | – | –
Cn1cc(-c2cc(S(C)(=O)=O)ccc2OC[C@@H]2CCC(=O)N2)c2cc[nH]c2c1=O [Example 228, 6-methyl-4-[5-(methylsulfonyl)-2-{[(2S)-5-oxopyrrolidin-2-yl]methoxy}phenyl]-1,6-dihydro-7H-pyrrolo[2,3-c]pyridin-7-one] | 39 | 108 | 107 | > 3000 | > 120 | > 120 | – | – | – | –
